The conditions of series [1]: clinical trial, early 1970s; cited from earlier work.
For series [2] the following is noted: in words; cited from earlier work.
A further series relates to wild-type HIV-1. Further details: method as in PMID 21344906. To be noted: cited from earlier work.

Structures are written as SMILES.

Regarding `CC[C@@](O)(C(=O)[O-])c1cc2n(c(=O)c1CO)Cc1cc3ccccc3nc1-2.[Na+]` [compound 15], in series [1], the efficacy entry is on record as “low efficacy”; the side effects entry was “unpredictable and severe side effects, including hemorrhagic cystitis and myelotoxicity”.
For orientation: melting point means the temperature of the solid-liquid transition. `CC[C@@]1(O)C(=O)OCc2c1cc1n(c2=O)Cc2c-1nc1ccc(N3CCOCC3)cc1c2C` [P211, 7-Methyl-10-morpholino-20(S)-camptothecin] had a melting point of 283 to 285 °C.
For the compound `CC[C@@]1(O)C(=O)OCc2c1cc1n(c2=O)Cc2cc3ccccc3nc2-1` [CPT, Camptothecin], the water solubility result in series [2] is “negligible water solubility”.
Broadly, the EC50 is the concentration needed to bring the measured effect to its halfway point. In the case of `Cc1cc(/C=C/C#N)cc(C)c1Nc1ccnc(Nc2ccc(C#N)cc2)n1` [rilpivirine], the EC50 in the series with wild-type HIV-1 was 0.67 nM.
`CC[C@@]1(O)C(=O)OCc2c1cc1n(c2=O)Cc2c-1nc1ccc(C3CCCCC3)cc1c2C` [P210, 10-Cyclohexyl-7-methyl-20(S)-camptothecin] registered a melting point of 243 to 245 °C.

The record behind these values is publication PMC6320962, “Synthesis, Experimental and Density Functional Theory (DFT) Studies on Solubility of Camptothecin Derivatives” (Molecules, 2018).
